A value given as a limit tells only on which side of the number the result lay.

Data set [1] can be described thus: Half life in human liver microsomes. Type of data set: ADME, Microsome.
The nature of data set [2]: Cmax in Sprague-Dawley rat at 10 mg/kg, po. Format: ADME, organism-based. Conditions: in vivo. Set-up: route oral, dose 10 mg/kg.
Data set [3] can be described thus: Half life in Sprague-Dawley rat at 5 mg/kg, iv. Conditions: in vivo. Format: ADME, organism-based.
Data set [4] is described as follows: Observed clearance in Sprague-Dawley rat at 5 mg/kg, iv. Type of data set: ADME, organism-based. Conditions: in vivo.
The target of data set [5] is Cytochrome P450 2C9 (Homo sapiens, UniProt P11712). The experiment in a line: Inhibition of CYP2C9 (unknown origin). Type of data set: ADME.
Data set [6] can be described thus: Volume of distribution at steady state in Sprague-Dawley rat at 5 mg/kg, iv. The note with it: in vivo, read-out: Vdss. Format: ADME, organism-based.
Data set [7] concerns the target Somatostatin receptor type 3 (Homo sapiens, UniProt P32745). The experiment in a line: Agonist activity at human SST3.
For data set [8], the target named is Somatostatin receptor type 1 (Homo sapiens, UniProt P30872). The experiment in a line: Agonist activity at human SST1.
Data set [9] has as its target Voltage-gated inwardly rectifying potassium channel KCNH2 (Homo sapiens, UniProt Q12809). Nature of the data set: Inhibition of human ERG.
Data set [10] in a line: Oral bioavailability in Sprague-Dawley rat at 10 mg/kg. Type of data set: ADME, organism-based. The note with it: in vivo.
Data set [11] in a line: Half life in rat liver microsomes. Format: ADME, Microsome.
In data set [12] the test system is Rattus norvegicus. Nature of the data set: Suppression of growth hormone production in GHRH-challenged sc dosed Sprague-Dawley rat plasma administered GHRH at 1 to 8 hrs post dose and measured 5 mins after each GHRH challenge by sandwich ELISA. Type of data set: functional, organism-based. The note with it: dose mg/kg 0.1-10, time hrs 1-8.
The target of data set [13] is Somatostatin receptor type 5 (Homo sapiens, UniProt P35346). Nature of the data set: Agonist activity at human SST5.
Data set [14] has as its target Cytochrome P450 2C19 (Homo sapiens, UniProt P33261). The experiment in a line: Inhibition of CYP2C19 (unknown origin). Format: ADME.
Data set [15] addresses Cytochrome P450 3A4 (Homo sapiens, UniProt P08684). The experiment in a line: Inhibition of CYP3A4 (unknown origin). Format: ADME.
The nature of data set [16]: AUC (0 to infinity) in Sprague-Dawley rat at 10 mg/kg, po. The note with it: in vivo. Set-up: time infinity, route oral, dose 10 mg/kg. Format: ADME, organism-based.

Cytochrome P450 3A4, sequence (P08684 whole entry): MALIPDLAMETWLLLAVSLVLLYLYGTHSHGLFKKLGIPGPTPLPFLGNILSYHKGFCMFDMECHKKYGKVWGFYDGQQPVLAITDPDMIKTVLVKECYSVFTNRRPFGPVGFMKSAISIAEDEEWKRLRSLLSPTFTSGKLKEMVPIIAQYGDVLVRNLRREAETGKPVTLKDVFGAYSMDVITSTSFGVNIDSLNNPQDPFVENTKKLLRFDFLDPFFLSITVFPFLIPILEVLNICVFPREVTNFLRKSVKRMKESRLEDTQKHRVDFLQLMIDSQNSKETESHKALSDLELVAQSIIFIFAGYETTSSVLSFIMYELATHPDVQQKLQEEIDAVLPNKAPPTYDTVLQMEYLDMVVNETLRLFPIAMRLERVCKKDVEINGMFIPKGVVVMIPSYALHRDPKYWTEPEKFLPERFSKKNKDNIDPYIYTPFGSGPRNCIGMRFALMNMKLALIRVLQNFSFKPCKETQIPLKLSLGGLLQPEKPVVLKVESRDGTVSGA
Somatostatin receptor type 5, sequence (P35346 whole entry): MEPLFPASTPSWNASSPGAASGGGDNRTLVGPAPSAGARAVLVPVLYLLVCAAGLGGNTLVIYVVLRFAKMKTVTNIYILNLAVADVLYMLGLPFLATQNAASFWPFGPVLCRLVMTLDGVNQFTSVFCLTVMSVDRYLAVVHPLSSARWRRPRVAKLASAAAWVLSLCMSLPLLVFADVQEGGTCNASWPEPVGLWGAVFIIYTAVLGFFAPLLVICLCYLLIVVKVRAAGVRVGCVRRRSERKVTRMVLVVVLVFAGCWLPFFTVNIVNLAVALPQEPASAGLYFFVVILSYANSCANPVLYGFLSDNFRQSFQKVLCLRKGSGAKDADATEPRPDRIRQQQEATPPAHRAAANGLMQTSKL
Somatostatin receptor type 1, sequence (P30872 whole entry): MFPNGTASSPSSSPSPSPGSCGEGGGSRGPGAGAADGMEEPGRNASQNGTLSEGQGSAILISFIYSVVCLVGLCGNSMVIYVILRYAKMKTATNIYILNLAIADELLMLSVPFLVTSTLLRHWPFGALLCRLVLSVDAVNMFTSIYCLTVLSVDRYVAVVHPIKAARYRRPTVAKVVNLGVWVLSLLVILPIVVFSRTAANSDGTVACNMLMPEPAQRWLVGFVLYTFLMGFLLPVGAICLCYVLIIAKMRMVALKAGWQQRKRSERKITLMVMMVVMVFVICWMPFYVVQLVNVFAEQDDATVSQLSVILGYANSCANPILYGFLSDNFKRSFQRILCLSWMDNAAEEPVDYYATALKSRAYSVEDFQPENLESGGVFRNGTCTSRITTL
Somatostatin receptor type 3, sequence (P32745 whole entry): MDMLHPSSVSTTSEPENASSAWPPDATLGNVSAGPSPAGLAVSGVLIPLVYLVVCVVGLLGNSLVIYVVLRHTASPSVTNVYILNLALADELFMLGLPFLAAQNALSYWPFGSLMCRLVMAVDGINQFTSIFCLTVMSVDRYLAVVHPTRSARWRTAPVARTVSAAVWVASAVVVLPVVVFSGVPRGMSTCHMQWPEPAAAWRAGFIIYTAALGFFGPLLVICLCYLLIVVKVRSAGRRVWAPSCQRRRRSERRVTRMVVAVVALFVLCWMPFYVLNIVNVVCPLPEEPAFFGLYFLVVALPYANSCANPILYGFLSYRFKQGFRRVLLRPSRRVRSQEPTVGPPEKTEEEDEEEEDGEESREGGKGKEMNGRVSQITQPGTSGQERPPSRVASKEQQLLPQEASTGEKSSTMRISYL
Voltage-gated inwardly rectifying potassium channel KCNH2, sequence (Q12809 whole entry): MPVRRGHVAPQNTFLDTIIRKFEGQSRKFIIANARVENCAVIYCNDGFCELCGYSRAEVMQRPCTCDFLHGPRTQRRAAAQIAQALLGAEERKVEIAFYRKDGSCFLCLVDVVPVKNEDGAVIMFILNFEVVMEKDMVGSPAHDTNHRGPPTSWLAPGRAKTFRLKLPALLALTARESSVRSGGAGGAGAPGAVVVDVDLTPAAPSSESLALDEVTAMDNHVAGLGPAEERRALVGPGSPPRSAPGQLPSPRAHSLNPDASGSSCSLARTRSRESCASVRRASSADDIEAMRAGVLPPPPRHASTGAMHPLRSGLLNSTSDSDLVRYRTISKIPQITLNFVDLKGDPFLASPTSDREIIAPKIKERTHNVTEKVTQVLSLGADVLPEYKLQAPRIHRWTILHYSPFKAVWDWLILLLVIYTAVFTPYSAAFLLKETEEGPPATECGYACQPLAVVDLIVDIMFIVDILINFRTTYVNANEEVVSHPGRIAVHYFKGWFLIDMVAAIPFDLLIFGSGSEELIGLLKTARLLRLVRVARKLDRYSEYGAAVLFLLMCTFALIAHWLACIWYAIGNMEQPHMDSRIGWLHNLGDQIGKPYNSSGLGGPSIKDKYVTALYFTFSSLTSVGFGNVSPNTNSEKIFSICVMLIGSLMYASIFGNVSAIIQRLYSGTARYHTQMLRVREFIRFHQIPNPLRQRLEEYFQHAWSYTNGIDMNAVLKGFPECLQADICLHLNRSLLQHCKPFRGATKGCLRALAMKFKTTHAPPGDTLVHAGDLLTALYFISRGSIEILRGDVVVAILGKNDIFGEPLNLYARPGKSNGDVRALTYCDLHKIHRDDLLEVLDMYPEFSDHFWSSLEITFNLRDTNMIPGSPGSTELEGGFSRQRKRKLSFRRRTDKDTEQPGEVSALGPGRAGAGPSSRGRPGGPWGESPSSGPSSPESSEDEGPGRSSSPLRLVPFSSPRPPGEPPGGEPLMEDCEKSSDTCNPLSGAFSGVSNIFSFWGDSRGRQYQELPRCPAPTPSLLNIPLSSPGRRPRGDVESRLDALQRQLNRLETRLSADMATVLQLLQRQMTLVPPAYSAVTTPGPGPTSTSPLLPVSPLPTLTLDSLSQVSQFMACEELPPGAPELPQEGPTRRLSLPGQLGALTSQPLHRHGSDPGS
Cytochrome P450 2C9, sequence (P11712 whole entry): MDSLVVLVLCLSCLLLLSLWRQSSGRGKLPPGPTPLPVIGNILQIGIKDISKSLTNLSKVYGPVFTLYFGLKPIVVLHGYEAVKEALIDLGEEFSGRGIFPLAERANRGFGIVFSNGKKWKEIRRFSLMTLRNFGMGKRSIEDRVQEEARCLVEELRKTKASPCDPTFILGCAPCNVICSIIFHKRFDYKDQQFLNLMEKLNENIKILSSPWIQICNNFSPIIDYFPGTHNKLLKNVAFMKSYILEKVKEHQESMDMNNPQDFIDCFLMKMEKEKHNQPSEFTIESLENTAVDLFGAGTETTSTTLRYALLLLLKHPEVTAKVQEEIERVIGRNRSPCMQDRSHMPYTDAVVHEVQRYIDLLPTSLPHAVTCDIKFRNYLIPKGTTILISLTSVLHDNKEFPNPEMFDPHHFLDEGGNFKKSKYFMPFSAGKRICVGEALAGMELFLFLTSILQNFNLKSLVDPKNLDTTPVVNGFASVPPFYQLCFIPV
Cytochrome P450 2C19, sequence (P33261 whole entry): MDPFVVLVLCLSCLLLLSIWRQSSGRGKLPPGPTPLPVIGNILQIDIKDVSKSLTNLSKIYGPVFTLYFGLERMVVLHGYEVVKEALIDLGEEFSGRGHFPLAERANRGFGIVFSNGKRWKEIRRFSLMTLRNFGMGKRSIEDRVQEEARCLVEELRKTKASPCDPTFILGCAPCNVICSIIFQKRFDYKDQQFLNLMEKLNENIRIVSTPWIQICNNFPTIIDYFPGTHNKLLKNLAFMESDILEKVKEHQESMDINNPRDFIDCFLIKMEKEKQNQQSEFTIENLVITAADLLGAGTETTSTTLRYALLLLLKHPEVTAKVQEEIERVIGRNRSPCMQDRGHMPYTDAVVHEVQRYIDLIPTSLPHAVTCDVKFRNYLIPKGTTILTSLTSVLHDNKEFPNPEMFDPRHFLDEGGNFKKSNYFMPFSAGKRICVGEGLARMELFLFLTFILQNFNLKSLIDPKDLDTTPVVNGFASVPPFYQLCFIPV

Regarding `Cc1cc(Cl)cc(-c2cnc3ncn(-c4cc(O)cc(F)c4)c(=O)c3c2CN(C)C[C@@H]2CCCN2)c1`, the results for the half-life in data set [1], in data set [3] and in data set [11] were 35 min, 204 min and 23 min, respectively. Moreover, the concentration in data set [2] peaked (Cmax) at 0.043 µg/mL. Moreover, the clearance in data set [4] came to 4.38 L/h/kg. Further, the IC50 in data set [5] is above 10 µM; in [9], 3.16 µM; in [14], above 10 µM; in data set [15] it was above 10 µM. In [6], the Vd came to 11.9 L/kg. The figures for the EC50 in data set [7], in data set [8] and in data set [13] were 0.00794 µM, 0.316 µM and above 1 µM, respectively. The bioavailability in [10] worked out at 14%. In addition, the Activity entry in data set [12] was “Dose-dependent effect”. Moreover, the AUC(0-inf) in data set [16] was 0.329 µg·h/mL.

The record behind these values is ChEMBL document CHEMBL4665759, “Discovery of substituted 3H-pyrido[2,3-d]pyrimidin-4-ones as potent, biased, and orally bioavailable sst2 agonist” (Bioorg Med Chem Lett, 2020).
